According to US20220331435A1, “PROTAC SMALL MOLECULE COMPOUND AND USE THEREOF” (ZHUHAI YUFAN BIOTECHNOLOGIES CO., LTD, priority 2019, published 2022):
Where two headings read alike, the source gives them in different places.

Tests used:
Format in all cases: cell-based
[1] = tested on: SLP76 Ser376 phosphorylation; experiment: Inhibition of SLP76 Ser376 phosphorylation in Jurkat cells (Western blot); conditions: Homo sapiens, compound 100 nM
Protocol: (§1) S1: Jurkat cells were resuscitated, and then subjected to adherent culture for 12 h, compounds were added, the compound concentrations were fixed (treatment time was 0 h, 3 h, 6 h, 12 h, 24 h and 72 h) or the treatment time was fixed (compound concentrations were 0 nM, 1 nM, 10 nM, 100 nM and 1000 nM);
(§2) S2: the culture solution was poured out, the cells were washed with 3 mL of PBS pre-cooled at 4° C., then the washing solution was discarded, an appropriate amount of lysis solution containing PMSF (100×) was added according to the cell amount, the mixture was uniformly mixed, then placed on ice for lysis for 30 min, and centrifuged at 12000 rpm and at 4° C. for 5 min, (a centrifuge was started for pre-cooling in advance), and the centrifuged supernatant was transferred into a new centrifuge tube and prepared for quantification;
(§3) S3: an BCA quantitative reagent of Pierce™ BCA Protein Assay Kit (23225) was added at 200 uL/well, then 20 uL of BSA with known different concentrations was added to prepare a protein quantitative standard curve and a sample protein to be detected with avoiding generation of bubbles, the mixture was incubated for 30 min in the dark at 37° C., an OD value was measured at 562 nm, then an appropriate amount of SDS-PAGE loading buffer was added to the protein sample, and the reaction mixture was heated for 5 min in a boiling water bath to fully denature the protein, and stored at −20° C. for later use;
(§4) S4: an SDS-PAGE gel was prepared, wherein the voltage of a concentrated gel was 90 V, and the voltage of a separation gel was 120 V, a membrane was transferred for 1 h at 4° C. and at a voltage of 100 V, after the membrane was transferred, the protein membrane was immediately placed in a prepared 5% BSA solution, and the mixture was slowly shaken on a shaker, and sealed for 1 h at room temperature;
(§5) S5: the primary antibody was diluted according to an appropriate proportion according to the specifications of HPK1 Antibody (4472S CST), GLK (D1L4G) Rabbit mAb (92427S CST), SLP-76 (D1R1A) Rabbit mAb (70896S CST), Phospho-SLP-76 (Ser376) (D7S1K) XP® Rabbit mAb (92711T CST) and β-actin Mouse Monoclonal antibody (BE0021 easybio), then incubated overnight with slow shaking at 4° C., and washed 3 times with PBST for 10 min/time;
(§6) S6: Goat Anti-Rabbit IgG (H&L)-HRP Conjugated (BE0101 easybio) or Goat Anti-Mouse IgG (H&L)-HRP Conjugated (BE0102 easybio) was selected according to the primary antibody, and the secondary antibody was diluted according to an appropriate proportion according to the specification of the secondary antibody, then incubated for 1 h at room temperature with slow shaking, and washed 3 times with PBST for 10 min/time; and
(§7) S7: an ECL luminescence was added, the results were observed by a developing machine, Western results were quantified using Image J software, and the degradation rates (HPK1 and GLK) or inhibition rates (SLP76 Ser376 phosphorylation) were calculated by comparison with a control group to which no compounds were added, (degradation rate/inhibition rate=1−administration group/control group).

GLK = molecular target: T1, GLK (Homo sapiens, UniProt Q8IVH8); experiment: GLK degradation in Jurkat cells (Western blot); conditions: treatment time 6 h, compound 100 nM
T1 construct: endogenous in cells; host or cells: Jurkat cells
T1 sequence (Q8IVH8 1-894): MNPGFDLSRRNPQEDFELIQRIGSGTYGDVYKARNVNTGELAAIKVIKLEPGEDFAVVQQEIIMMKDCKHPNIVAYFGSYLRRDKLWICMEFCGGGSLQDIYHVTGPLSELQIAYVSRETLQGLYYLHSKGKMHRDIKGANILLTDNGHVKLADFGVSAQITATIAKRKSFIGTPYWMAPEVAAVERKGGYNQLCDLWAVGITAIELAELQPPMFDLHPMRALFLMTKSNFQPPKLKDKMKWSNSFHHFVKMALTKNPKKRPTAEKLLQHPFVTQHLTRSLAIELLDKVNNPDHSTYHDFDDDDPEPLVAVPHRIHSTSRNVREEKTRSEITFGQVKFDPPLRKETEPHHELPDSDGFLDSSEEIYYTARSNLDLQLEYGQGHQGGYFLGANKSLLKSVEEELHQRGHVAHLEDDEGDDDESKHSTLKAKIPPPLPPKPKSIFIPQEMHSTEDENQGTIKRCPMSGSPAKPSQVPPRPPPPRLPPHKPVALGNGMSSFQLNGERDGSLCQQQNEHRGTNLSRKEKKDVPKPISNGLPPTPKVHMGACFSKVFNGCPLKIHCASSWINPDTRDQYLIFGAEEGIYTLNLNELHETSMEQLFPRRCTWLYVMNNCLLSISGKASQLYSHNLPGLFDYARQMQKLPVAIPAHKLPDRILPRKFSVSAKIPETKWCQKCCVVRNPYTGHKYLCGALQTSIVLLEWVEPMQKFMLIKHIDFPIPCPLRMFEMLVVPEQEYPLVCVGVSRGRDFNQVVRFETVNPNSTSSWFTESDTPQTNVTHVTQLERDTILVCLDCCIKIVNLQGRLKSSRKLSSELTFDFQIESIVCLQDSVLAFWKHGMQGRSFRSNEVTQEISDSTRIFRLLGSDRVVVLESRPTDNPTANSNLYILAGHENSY
Protocol: as §1, §2, §3, §4, §5, §6, §7

HPK1 [2] = molecular target: T2, HPK1 (Homo sapiens, UniProt Q92918); experiment: HPK1 degradation in Jurkat cells (Western blot); conditions: for HPK1 degradation rate at 0.1 µM: Jurkat, treatment time 6 h; for Degradation rate (12 h): 12 h (Table 2); for Degradation rate (10 nM) / Degradation rate (100 nM): HPK1, treatment time 12 h; for Degradation rate (10 nM): compound 10 nM
T2 construct: endogenous in cells; host or cells: Jurkat cells
Protocol: as §1, §2, §3, §4, §5, §6, §7

HPK1 [3] = molecular target: T2, HPK1; experiment: HPK1 degradation in Jurkat cells (Western blot); conditions: compound 100 nM
[4] = treatment time 6 h, read-out: SLP76 phosphorylation inhibition rate

T2 sequence (Q92918 whole entry): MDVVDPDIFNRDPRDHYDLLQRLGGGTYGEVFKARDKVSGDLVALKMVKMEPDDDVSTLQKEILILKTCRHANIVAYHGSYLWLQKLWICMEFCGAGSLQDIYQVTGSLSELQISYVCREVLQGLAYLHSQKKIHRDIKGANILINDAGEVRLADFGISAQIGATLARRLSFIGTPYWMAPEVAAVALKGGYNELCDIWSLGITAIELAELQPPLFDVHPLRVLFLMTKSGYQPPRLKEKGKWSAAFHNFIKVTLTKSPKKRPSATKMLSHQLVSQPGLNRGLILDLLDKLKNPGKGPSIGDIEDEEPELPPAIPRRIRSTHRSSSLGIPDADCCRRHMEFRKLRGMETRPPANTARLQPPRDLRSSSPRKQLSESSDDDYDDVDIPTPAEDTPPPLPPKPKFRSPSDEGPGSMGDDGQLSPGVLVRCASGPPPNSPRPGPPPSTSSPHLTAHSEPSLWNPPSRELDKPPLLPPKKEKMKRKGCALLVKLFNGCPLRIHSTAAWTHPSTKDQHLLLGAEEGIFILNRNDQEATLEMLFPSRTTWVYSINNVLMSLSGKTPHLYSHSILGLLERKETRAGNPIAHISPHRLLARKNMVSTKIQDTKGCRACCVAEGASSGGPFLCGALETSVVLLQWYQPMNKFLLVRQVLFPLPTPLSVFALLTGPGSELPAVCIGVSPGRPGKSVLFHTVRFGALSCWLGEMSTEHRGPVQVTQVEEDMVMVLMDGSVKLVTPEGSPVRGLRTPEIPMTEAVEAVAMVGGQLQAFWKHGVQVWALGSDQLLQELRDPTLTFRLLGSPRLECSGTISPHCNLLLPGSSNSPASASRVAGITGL

GLK degradation rate (GLK) [%] | HPK1 degradation rate at 0.1 µM (HPK1 [2]; 6 h, compound 100 nM) [%] | Compound | inhibition at 0.1 µM [1, 4] [%] | also measured
−36 | 30 | CC(C)(O)C#Cc1cccc(COc2cc(-c3cnc(C4CCN(C(=O)CCOCCCCCCCCOc5cccc6c5C(=O)N(C5CCC(=O)NC5=O)C6=O)CC4)s3)cnc2N)c1 (centres unmarked) [Compound C11] |  | 
43 | 38 | CC(C)(O)C#Cc1cccc(COc2cc(-c3cnc(C4CCN(C(=O)CCNC(=O)CCCOc5cccc6c5C(=O)N(C5CCC(=O)NC5=O)C6=O)CC4)s3)cnc2N)c1 (centres unmarked) [Compound C13] | 4 | 
−34 | 46 | CC(C)(O)C#Cc1cccc(COc2cc(-c3cnc(C4CCN(C(=O)CCOCCCCCCOc5cccc6c5C(=O)N(C5CCC(=O)NC5=O)C6=O)CC4)s3)cnc2N)c1 (centres unmarked) [Compound C9] | 61 | 
34 | 66 | CC(C)(O)C#Cc1cccc(COc2cc(-c3cnc(C4CCN(C(=O)CCOCCCCCOc5cccc6c5C(=O)N(C5CCC(=O)NC5=O)C6=O)CC4)s3)cnc2N)c1 (centres unmarked) [Compound C8] | 51 | 

Second part, the molecule before the results:

Compound | GLK degradation rate (GLK) [%] | HPK1 degradation rate at 0.1 µM (HPK1 [2]; 6 h, compound 100 nM) [%] | inhibition at 0.1 µM [1, 4] [%] | also measured
CC(C)(O)C#Cc1cccc(COc2cc(-c3cnc(C4CCN(C(=O)C5CCN(C(=O)CCCCCOc6cccc7c6C(=O)N(C6CCC(=O)NC6=O)C7=O)CC5)CC4)s3)cnc2N)c1 (centres unmarked) [Compound C18] | 71 | 39 | 34 | 
CC(C)(O)C#Cc1cccc(COc2cc(-c3cnc(C4CCN(C(=O)C5CCN(C(=O)CCCCOc6cccc7c6C(=O)N(C6CCC(=O)NC6=O)C7=O)CC5)CC4)s3)cnc2N)c1 (centres unmarked) [Compound C17] | 42 | -7 | 22 | 
CC(C)(O)C#Cc1cccc(COc2cc(-c3cnc(C4CCN(C(=O)Cn5cc(COCCOc6cccc7c6C(=O)N(C6CCC(=O)NC6=O)C7=O)nn5)CC4)s3)cnc2N)c1 (centres unmarked) [Compound C20] | 15 | -15 | 7 | HPK1 degradation rate (12 h) (HPK1 [2]; 12 h (in-cell remark of Table 4), compound 100 nM): 41%
CC(C)(O)C#Cc1cccc(COc2cc(-c3cnc(C4CCN(C(=O)CCNC(=O)CCCCCOc5cccc6c5C(=O)N(C5CCC(=O)NC5=O)C6=O)CC4)s3)cnc2N)c1 (centres unmarked) [Compound C15] | 38 | -27 | -7 | 
CC(C)(O)C#Cc1cccc(COc2cc(-c3cnc(C4CCN(C(=O)CCCCCCCCCOc5cccc6c5C(=O)N(C5CCC(=O)NC5=O)C6=O)CC4)s3)cnc2N)c1 (centres unmarked) [Compound C3] |  |  |  | inhibition at 0.1 µM ([1]; maximum over different time points, read-out: Maximum inhibition rate of SLP76 Ser376 phosphorylation): 81%; Degradation rate (3 h) (HPK1 [2]; HPK1, compound 100 nM, 3 h): 54%; Degradation rate (6 h) (HPK1 [2]; HPK1, compound 100 nM, 6 h): 52%; Degradation rate (12 h) (HPK1 [2]; HPK1, compound 100 nM): 58%; Degradation rate (24 h) (HPK1 [2]; HPK1, compound 100 nM): 3%; Degradation rate (10 nM) (HPK1 [2]): 15%; Degradation rate (100 nM) (HPK1 [2]; compound 100 nM): 75%; Dmax at 0.1 µM (HPK1 [2]; compound 100 nM, maximum over different time points, read-out: Maximum degradation rate of HPK1): 62%; Degradation rate (48 h) (HPK1 [3]): 11%
CN1C(=O)CCC(N2C(=O)c3cccc(OCCCCCCCC(=O)N4CCC(c5ncc(-c6cnc(N)c(OCc7cccc(C#CC(C)(C)O)c7)c6)s5)CC4)c3C2=O)C1=O (centres unmarked) [Compound C2] |  |  |  | Degradation rate (10 nM) (HPK1 [2]): 39%; Degradation rate (100 nM) (HPK1 [2]; compound 100 nM): 33%
CC(C)(O)C#Cc1cccc(COc2cc(-c3cnc(C4CCN(C(=O)CCCCCCCOc5cccc6c5C(=O)N(C5CCC(=O)NC5=O)C6=O)CC4)s3)cnc2N)c1 (centres unmarked) [Compound C1] |  |  |  | Degradation rate (10 nM) (HPK1 [2]): 47%; Degradation rate (100 nM) (HPK1 [2]; compound 100 nM): 68%
CC(C)(O)C#Cc1cccc(COc2cc(-c3cnc(C4CCN(C(=O)C5CCN(C(=O)CCCCCCOc6cccc7c6C(=O)N(C6CCC(=O)NC6=O)C7=O)CC5)CC4)s3)cnc2N)c1 (centres unmarked) [Compound C19] |  |  | 3 | 
CC(C)(O)C#Cc1cccc(COc2cc(-c3cnc(C4CCN(C(=O)CCNC(=O)CCCCOc5cccc6c5C(=O)N(C5CCC(=O)NC5=O)C6=O)CC4)s3)cnc2N)c1 (centres unmarked) [Compound C14] | 60 | 58 | 26 | 
CC(C)(O)C#Cc1cccc(COc2cc(-c3cnc(C4CCN(C(=O)CCOCCOCCOCCOCCOc5cccc6c5C(=O)N(C5CCC(=O)NC5=O)C6=O)CC4)s3)cnc2N)c1 (centres unmarked) [Compound C7] |  |  |  | Degradation rate (12 h) (HPK1 [2]; HPK1, compound 100 nM): 58%; Degradation rate (24 h) (HPK1 [2]; HPK1, compound 100 nM): 86%; Degradation rate (72 h) (HPK1 [2]; HPK1, compound 100 nM, 72 h): −9%; Degradation rate (10 nM) (HPK1 [2]): 72%; Degradation rate (100 nM) (HPK1 [2]; compound 100 nM): 68%; Degradation rate (48 h) (HPK1 [3]): −40%
CC(C)(O)C#Cc1cccc(COc2cc(-c3cnc(C4CCN(C(=O)CCNC(=O)CCCCCCOc5cccc6c5C(=O)N(C5CCC(=O)NC5=O)C6=O)CC4)s3)cnc2N)c1 (centres unmarked) [Compound C16] | 74 | 49 | 24 | 
